Measured values published in the NIST ThermoML archive (doi:10.1021/je500886a).

Experiment: mn = molality of the nth substance listed, in mol/kg
Settings: 101 kPa, Liquid

OC[C@H]1O[C@@](CO)(O[C@H]2O[C@H](CO)[C@@H](O)[C@H](O)[C@H]2O)[C@@H](O)[C@@H]1O [D-sucrose] + O
Settings | mass density, 288.15 K [kg/m3] | mass density, 298.15 K [kg/m3] | mass density, 308.15 K [kg/m3] | mass density, 318.15 K [kg/m3] | viscosity, 288.15 K [mPa·s] | viscosity, 298.15 K [mPa·s] | viscosity, 308.15 K [mPa·s] | viscosity, 318.15 K [mPa·s]
m1 = 0.0482 | 1005.4 | 1003.28 | 1000.26 | 996.41 | – | – | – | –
m1 = 0.05054 | – | – | – | – | 1.198 | 0.934 | 0.751 | 0.621
m1 = 0.06821 | 1007.96 | 1005.82 | 1002.79 | 998.92 | – | – | – | –
m1 = 0.06969 | – | – | – | – | 1.221 | 0.951 | 0.766 | 0.632
m1 = 0.08888 | 1010.58 | 1008.42 | 1005.37 | 1001.49 | – | – | – | –
m1 = 0.09107 | – | – | – | – | 1.242 | 0.969 | 0.78 | 0.645
m1 = 0.1095 | 1013.17 | 1010.99 | 1007.92 | 1004.02 | – | – | – | –
m1 = 0.1098 | – | – | – | – | 1.264 | 0.984 | 0.793 | 0.654
m1 = 0.1286 | 1015.55 | 1013.35 | 1010.27 | 1006.35 | – | – | – | –
m1 = 0.1293 | – | – | – | – | 1.286 | 1.001 | 0.805 | 0.666
m1 = 0.1495 | 1018.13 | 1015.9 | 1012.8 | 1008.87 | – | – | – | –
m1 = 0.1497 | – | – | – | – | 1.31 | 1.019 | 0.819 | 0.675

O=C[C@H](O)[C@@H](O)[C@H](O)CO [D-xylose] + O
Settings | mass density, 288.15 K [kg/m3] | mass density, 298.15 K [kg/m3] | mass density, 308.15 K [kg/m3] | mass density, 318.15 K [kg/m3] | viscosity, 288.15 K [mPa·s] | viscosity, 298.15 K [mPa·s] | viscosity, 308.15 K [mPa·s] | viscosity, 318.15 K [mPa·s]
m1 = 0.0491 | 1001.82 | 999.72 | 996.71 | 992.87 | – | – | – | –
m1 = 0.04924 | – | – | – | – | 1.161 | 0.904 | 0.73 | 0.605
m1 = 0.06784 | – | – | – | – | 1.167 | 0.911 | 0.735 | 0.609
m1 = 0.07084 | 1002.99 | 1000.89 | 997.87 | 994.02 | – | – | – | –
m1 = 0.08985 | 1004.02 | 1001.9 | 998.88 | 995.03 | – | – | – | –
m1 = 0.09005 | – | – | – | – | 1.176 | 0.917 | 0.74 | 0.612
m1 = 0.1038 | – | – | – | – | 1.183 | 0.921 | 0.743 | 0.615
m1 = 0.1144 | 1005.32 | 1003.21 | 1000.16 | 996.31 | – | – | – | –
m1 = 0.1285 | – | – | – | – | 1.19 | 0.929 | 0.749 | 0.62
m1 = 0.1303 | 1006.16 | 1004.04 | 1000.99 | 997.13 | – | – | – | –
m1 = 0.1485 | 1007.12 | 1005 | 1001.94 | 998.07 | – | – | – | –
m1 = 0.151 | – | – | – | – | 1.201 | 0.936 | 0.754 | 0.624

O=C(CO)[C@@H](O)[C@H](O)[C@@H](O)CO [L-sorbose] + O
Settings | mass density [kg/m3] | viscosity [mPa·s]
288.15 K, m1 = 0.04909 | – | 1.162
288.15 K, m1 = 0.05105 | 1002.68 | –
288.15 K, m1 = 0.06584 | 1003.7 | –
288.15 K, m1 = 0.0704 | – | 1.173
288.15 K, m1 = 0.08456 | – | 1.182
288.15 K, m1 = 0.08815 | 1005.22 | –
288.15 K, m1 = 0.1091 | – | 1.195
288.15 K, m1 = 0.1289 | – | 1.206
288.15 K, m1 = 0.1505 | 1009.38 | –
288.15 K, m1 = 0.1507 | – | 1.216
298.15 K, m1 = 0.04909 | – | 0.907
298.15 K, m1 = 0.05105 | 1000.57 | –
298.15 K, m1 = 0.06584 | 1001.57 | –
298.15 K, m1 = 0.0704 | – | 0.916
298.15 K, m1 = 0.08456 | – | 0.923
298.15 K, m1 = 0.08815 | 1003.06 | –
298.15 K, m1 = 0.1073 | 1004.33 | –
298.15 K, m1 = 0.1091 | – | 0.931
298.15 K, m1 = 0.1507 | – | 0.947
308.15 K, m1 = 0.04909 | – | 0.733
308.15 K, m1 = 0.06584 | 998.56 | –
308.15 K, m1 = 0.0704 | – | 0.738
308.15 K, m1 = 0.08815 | 1000.04 | –
308.15 K, m1 = 0.1073 | 1001.3 | –
308.15 K, m1 = 0.1091 | – | 0.75
308.15 K, m1 = 0.1289 | – | 0.756
308.15 K, m1 = 0.1317 | 1002.89 | –
308.15 K, m1 = 0.1505 | 1004.1 | –
308.15 K, m1 = 0.1507 | – | 0.762
318.15 K, m1 = 0.04909 | – | 0.606
318.15 K, m1 = 0.05105 | 993.72 | –
318.15 K, m1 = 0.06584 | 994.7 | –
318.15 K, m1 = 0.0704 | – | 0.611
318.15 K, m1 = 0.08456 | – | 0.615
318.15 K, m1 = 0.08815 | 996.17 | –
318.15 K, m1 = 0.1073 | 997.41 | –
318.15 K, m1 = 0.1091 | – | 0.62
318.15 K, m1 = 0.1289 | – | 0.624
318.15 K, m1 = 0.1317 | 998.98 | –
318.15 K, m1 = 0.1505 | 1000.18 | –
318.15 K, m1 = 0.1507 | – | 0.629

[Br-].[NH4+] [ammonium bromide] + O
Settings | mass density, 288.15 K [kg/m3] | mass density, 298.15 K [kg/m3] | mass density, 308.15 K [kg/m3] | mass density, 318.15 K [kg/m3] | viscosity, 288.15 K [mPa·s] | viscosity, 298.15 K [mPa·s] | viscosity, 308.15 K [mPa·s] | viscosity, 318.15 K [mPa·s]
m1 = 0.05 | 1001.05 | 998.76 | 995.75 | 992.91 | 1.132 | 0.888 | 0.719 | 0.597
m1 = 0.5 | 1024.05 | 1021.81 | 1019.06 | 1015.68 | 1.096 | 0.87 | 0.71 | 0.598
m1 = 1 | 1049.01 | 1046.88 | 1043.31 | 1040.33 | 1.057 | 0.853 | 0.697 | 0.6
m1 = 2 | 1095.99 | 1092.56 | 1088.78 | 1085.68 | 1.002 | 0.827 | 0.678 | 0.602

OC[C@@H](O)[C@H](O)[C@H](O)[C@@H](O)CO [dulcitol] + O
Settings | mass density, 288.15 K [kg/m3] | mass density, 298.15 K [kg/m3] | mass density, 308.15 K [kg/m3] | mass density, 318.15 K [kg/m3] | viscosity, 288.15 K [mPa·s] | viscosity, 298.15 K [mPa·s] | viscosity, 308.15 K [mPa·s] | viscosity, 318.15 K [mPa·s]
m1 = 0.0503 | – | – | – | – | 1.164 | 0.909 | 0.732 | 0.605
m1 = 0.05086 | 1002.35 | 1000.21 | 997.18 | 993.33 | – | – | – | –
m1 = 0.07104 | – | – | – | – | 1.175 | 0.916 | 0.737 | 0.609
m1 = 0.0735 | 1003.75 | 1001.6 | 998.55 | 994.68 | – | – | – | –
m1 = 0.08768 | 1004.62 | 1002.46 | 999.39 | 995.51 | – | – | – | –
m1 = 0.08872 | – | – | – | – | 1.185 | 0.921 | 0.743 | 0.612
m1 = 0.1066 | 1005.78 | 1003.6 | 1000.52 | 996.63 | – | – | – | –
m1 = 0.1091 | – | – | – | – | 1.196 | 0.928 | 0.747 | 0.616
m1 = 0.1279 | 1007.07 | 1004.88 | 1001.77 | 997.86 | – | – | – | –
m1 = 0.1283 | – | – | – | – | 1.204 | 0.935 | 0.752 | 0.619
m1 = 0.1457 | 1008.14 | 1005.94 | 1002.81 | 998.89 | – | – | – | –
m1 = 0.1468 | – | – | – | – | 1.215 | 0.941 | 0.757 | 0.622

OC[C@@H](O)[C@H](O)[C@@H](O)CO [xylitol] + O
Settings | mass density, 288.15 K [kg/m3] | mass density, 298.15 K [kg/m3] | mass density, 308.15 K [kg/m3] | mass density, 318.15 K [kg/m3] | viscosity, 288.15 K [mPa·s] | viscosity, 298.15 K [mPa·s] | viscosity, 308.15 K [mPa·s] | viscosity, 318.15 K [mPa·s]
m1 = 0.04981 | – | – | – | – | 1.164 | 0.909 | 0.733 | 0.607
m1 = 0.0542 | 1001.89 | 999.75 | 996.72 | 992.86 | – | – | – | –
m1 = 0.06784 | – | – | – | – | 1.173 | 0.915 | 0.738 | 0.611
m1 = 0.07245 | 1002.81 | 1000.65 | 997.6 | 993.73 | – | – | – | –
m1 = 0.0852 | 1003.45 | 1001.27 | 998.22 | 994.33 | – | – | – | –
m1 = 0.08897 | – | – | – | – | 1.183 | 0.922 | 0.743 | 0.615
m1 = 0.1059 | – | – | – | – | 1.191 | 0.93 | 0.747 | 0.619
m1 = 0.1095 | 1004.66 | 1002.44 | 999.37 | 995.46 | – | – | – | –
m1 = 0.1313 | – | – | – | – | 1.204 | 0.939 | 0.755 | 0.624
m1 = 0.1314 | 1005.74 | 1003.49 | 1000.41 | 996.48 | – | – | – | –
m1 = 0.1501 | – | – | – | – | 1.212 | 0.945 | 0.76 | 0.628
m1 = 0.1527 | 1006.77 | 1004.5 | 1001.41 | 997.46 | – | – | – | –
